Assay results published in patent US20190231688A1, “METHOD OF ADMINISTERING EMULSION FORMULATIONS OF AN NK-1 RECEPTOR ANTAGONIST” (Heron Therapeutics, Inc., priority 2018, published 2019).

Assay: Pharmacokinetics of aprepitant emulsion versus fosaprepitant solution, intravenous
Format: in vivo, male Sprague-Dawley rats
Conditions: rat, 14 mg/kg aprepitant equivalent
Experimental: The pharmacokinetics of an aprepitant emulsion prepared according to Example 1 was determined. Two groups of six male Sprague-Dawley rats each were injected intravenously with, respectively, fosaprepitant in solution or aprepitant emulsion prepared according to Example 1. All drugs were administered at an effective concentration equivalent to 14 mg/kg aprepitant. Blood from all rats was collected at the appropriate time intervals and processed to plasma by centrifugation. Plasma samples were analyzed by LC-MS/MS for aprepitant and fosaprepitant, as appropriate. A plasma concentration versus time curve of aprepitant for the emulsion described in Example 1 and for fosaprepitant is presented in FIG. 2 (fosaprepitant in solution, •; aprepitant emulsion, ▴). The curves indicate the initial aprepitant level reached immediately after injection of the aprepitant emulsion was almost 3 times higher than the initial aprepitant level reached immediately after injection of the fosaprepitant solution.

C[C@@H](O[C@H]1OCCN(Cc2nc(O)n(P(=O)(O)O)n2)[C@H]1c1ccc(F)cc1)c1cc(C(F)(F)F)cc(C(F)(F)F)c1 [fosaprepitant]
Conversion of fosaprepitant to aprepitant: delay in the conversion of fosaprepitant to aprepitant
